In patent publication US8829193B2, “PIM kinase inhibitors and methods of their use” (Novartis AG, priority 2008, dated 2014):

Assays:
Pim1 kinase = Pim1 kinase (Homo sapiens (Human), UniProt P11309); experiment: Pim1 ATP depletion assay; format: biochemical; conditions: 20 μM ATP, 40 μM BAD peptide, 2.5 nM PIM1
Method: (§1) The activity of PIM1 is measured using a luciferase-luciferin based ATP detection reagent to quantify ATP depletion resulting from kinase-catalyzed phosphoryl transfer to a peptide substrate. Compounds to be tested are dissolved in 100% DMSO and directly distributed into white 384-well plates at 0.5 μl per well. […] After 15 minutes, 10 μl of 40 μM ATP in assay buffer is added. Final assay concentrations are 2.5 nM PIM1, 20 μM ATP, 40 μM BAD peptide and 2.5% DMSO. The reaction is performed until approximately 50% of the ATP is depleted, then stopped with the addition of 20 μl KinaseGlo Plus (Promega Corporation) solution. The stopped reaction is incubated for 10 minutes and the remaining ATP detected via luminescence on the Victor2 (Perkin Elmer).

Pim2 kinase = Pim2 kinase (Homo sapiens (Human), UniProt Q9P1W9); experiment: Pim2 ATP depletion assay; format: biochemical; conditions: 4 μM ATP, 10 μM BAD peptide, 5 nM PIM2
Pim2 kinase, sequence (Q9P1W9 whole entry): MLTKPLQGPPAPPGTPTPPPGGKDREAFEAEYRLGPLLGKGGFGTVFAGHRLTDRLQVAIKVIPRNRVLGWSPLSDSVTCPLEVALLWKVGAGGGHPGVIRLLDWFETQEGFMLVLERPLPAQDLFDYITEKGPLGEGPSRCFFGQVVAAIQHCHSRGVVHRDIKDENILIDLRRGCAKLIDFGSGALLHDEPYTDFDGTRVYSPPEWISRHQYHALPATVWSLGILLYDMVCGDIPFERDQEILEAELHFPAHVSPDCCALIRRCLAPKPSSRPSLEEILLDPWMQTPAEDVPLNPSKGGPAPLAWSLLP
Method: as §1, with “of PIM2” for “of PIM1”, “0.5 piper” for “0.5 μl per”, “of 8” for “of 40”, “are 5” for “are 2.5”, “nM PIM2, 4” for “nM PIM1, 20”, “ATP, 10” for “ATP, 40”

Pim3 kinase = Pim3 kinase (Homo sapiens (Human), UniProt Q86V86); experiment: Pim3 ATP depletion assay; format: biochemical; conditions: 40 μM ATP, 100 μM BAD peptide
Method: The activity of PIM3 is measured using a luciferase-luciferin based ATP detection reagent to quantify ATP depletion resulting from kinase-catalyzed phosphoryl transfer to a peptide substrate. Compounds to be tested are dissolved in 100% DMSO and directly distributed into white 384-well plates at 0.5 piper well. […] After 15 minutes, 10 μl of 80 μM ATP in assay buffer is added. Final assay concentrations are 5 nM PIM1, 40 μM ATP, 100 μM BAD peptide and 2.5% DMSO. The reaction is performed until approximately 50% of the ATP is depleted, then stopped by the addition of 20 μl KinaseGlo Plus (Promega Corporation) solution. The stopped reaction is incubated for 10 minutes and the remaining ATP detected via luminescence on the Victor2 (Perkin Elmer).

[1] = system: KMS11 (human myeloma cell line); experiment: Cell Proliferation Assay; format: cell-based; conditions: KMS-11, 72 h, KMS11 cells, 3 days, Cell Titer-Glow
Method: KMS11 (human myeloma cell line), were cultured in IMDM supplemented with 10% FBS, sodium pyruvate and antibiotics. Cells were plated in the same medium at a density of 2000 cells per well into 96 well tissue culture plates, with outside wells vacant, on the day of assay. MM1.s (human myeloma cell line), were cultured in RPMI1640 supplemented with 10% FBS, sodium pyruvate and antibiotics. Cells were plated in the same medium at a density of 5000 cells per well into 96 well tissue culture plates, with outside wells vacant, on the day of assay.
Test compounds supplied in DMSO were diluted into DMSO at 500 times the desired final concentrations before dilution into culture media to 2 times final concentrations. Equal volumes of 2× compounds were added to the cells in 96 well plates and incubated at 37° C. for 3 days.
After 3 days plates were equilibrated to room temperature and equal volume of Cell Titer-Glow Reagent (Promega) was added to the culture wells. The plates were agitated briefly and luminescent signal was measured with luminometer.
Using the procedures for Cell Proliferation Assay described above, the EC50 concentration of compounds of the previous examples were determined in KMS11 cells as shown in the following table.

Pim1 kinase, sequence (P11309 whole entry): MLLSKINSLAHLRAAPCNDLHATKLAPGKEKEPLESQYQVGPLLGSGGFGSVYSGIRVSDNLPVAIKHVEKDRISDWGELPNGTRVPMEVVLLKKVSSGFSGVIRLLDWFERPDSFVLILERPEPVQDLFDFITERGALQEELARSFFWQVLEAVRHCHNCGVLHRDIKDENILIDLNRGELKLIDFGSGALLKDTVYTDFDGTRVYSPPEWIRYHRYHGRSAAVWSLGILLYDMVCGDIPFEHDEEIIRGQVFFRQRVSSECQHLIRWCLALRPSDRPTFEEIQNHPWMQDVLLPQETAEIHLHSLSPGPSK

Compound | IC50 (Pim1 kinase) [nM] | IC50 (Pim2 kinase) [nM] | IC50 (Pim3 kinase) [nM] | EC50 [1] [nM]
CCO[C@@H]1C[C@H](N)CN(c2ccncc2NC(=O)c2csc(-c3c(F)cccc3F)n2)C1 [Example 23, N-(4-((3S,5R)-3-amino-5-ethoxypiperidin-1-yl)pyridin-3-yl)-2-(2,6-difluorophenyl)thiazole-4-carboxamide] | 56 | 85 | 86 | 6540
C[C@H]1CN(c2ccncc2NC(=O)c2csc(-c3c(F)cccc3F)n2)C[C@@H](N)[C@@H]1O [Example 36, N-(4-((3R,4R,5S)-3-amino-4-hydroxy-5-methylpiperidin-1-yl)pyridin-3-yl)-2-(2,6-difluorophenyl)thiazole-4-carboxamide] | 1 | 3 | 3 | 560
C[C@H]1C[C@@H](c2ccncc2NC(=O)c2csc(-c3c(F)cccc3F)n2)C[C@@H](N)[C@@H]1O [Example 41, N-(4-((1R,3R,4R,5S)-3-amino-4-hydroxy-5-methylcyclohexyl)pyridin-3-yl)-2-(2,6-difluorophenyl)thiazole-4-carboxamide (and enantiomer)] | 4 | 27 | 8 | > 10000

More lines, in order of falling IC50 (Pim1 kinase), values ahead:

IC50 (Pim1 kinase) [nM] | IC50 (Pim2 kinase) [nM] | IC50 (Pim3 kinase) [nM] | EC50 [1] [nM] | Compound
1 | 8 | 5 | 930 | CC1CCN(c2ccncc2NC(=O)c2csc(-c3c(F)cccc3F)n2)CC1N (centres unmarked) [Example 19, N-(4-(3-amino-4-methylpiperidin-1-yl)pyridin-3-yl)-2-(2,6-difluorophenyl)thiazole-4-carboxamide]
1 | 3 | 3 | 460 | N[C@H]1C[C@@H](C(F)(F)F)CN(c2ccncc2NC(=O)c2csc(-c3c(F)cccc3F)n2)C1 [Example 27, N-(4-((3S,5R)-3-amino-5-(trifluoromethyl)piperidin-1-yl)pyridin-3-yl)-2-(2,6-difluorophenyl)thiazole-4-carboxamide]
